From article PMC12569658, “An Orally Administered Misuse Deterrent Opioid Prodrug for Treatment of Acute Pain” (JACS Au, 2025)

Experiments:
C57BL/6J mice [1] = details: IP injection of oxycodone; ref previous reports (reference numbers not printed); cited from earlier work
Description: To confirm that this analgesic effect was due to enzymatic degradation of the prodrug in the digestive system, the antinociceptive effects of prodrug 20 were examined following systemic intraperitoneal (IP) injection.

chymotrypsin and trypsin [2] = assay: Michaelis-Menten kinetics of pNP release in the presence of both chymotrypsin and trypsin; type: biochemical; details: for Km / VMax / kCat/KM (substrate specificity): chymotrypsin and trypsin 0.02 mM each, substrate 0.1-2.0 mM, 35 mM HEPES pH 7.5, 37 °C, absorbance 405 nm, average of n = 3
Description: In order to ensure the prodrug would be cleaved effectively once it was exposed to chymotrypsin and trypsin in concentrations found in the […], we elected to optimize the peptide sequence further, particularly on the ε-amine of the lysine, to enhance the substrate efficiency (Figure B). This would help to ensure that oxycodone is released in the gastrointestinal tract. […] Previous studies have shown that chymotrypsin binding can be enhanced through additional nonbulky amino acid groups following the aromatic residue. ,− Accordingly, substrates 9 and 10, with alanine residues coupled to phenylalanine, were prepared, and their kinetics were examined. […] Coupling a third alanine to the tyrosine residue (12) increased the substrate specificity by around 5-fold compared to 11. Since coupling of alanine residues to the α-amine of 6–8 increased the percentage of pNP release (Figure A), 13 with a single alanine on the N-terminus was prepared. Compared to substrate 11 with no N-terminal alanine, there was a minimal effect on the K M, but the V Max was reduced by half, leading to a lower k Cat/K M. Since 12 had the highest k Cat/K M and the fastest V Max, we proceeded to use this peptide scaffold for further experiments. […]
(§1) General Procedure – Michaelis-Menten Kinetics […]
(§2) substrate concentration of 2.0, 1.5, 1.0, 0.5, 0.24, and 0.1 mM, maintaining a constant concentration of DMSO across all conditions. These solutions were then combined with chymotrypsin and trypsin to afford a final concentration of 0.02 mM for each enzyme. Immediately upon addition of the proteases, the 96-well plate was inserted into the plate reader and the absorbance at 405 nm was monitored over the course of 4 ho urs with time points taken every 30 seconds. The plate was incubated in the plate reader at 37 °C. All conditions were carried out in triplicate and reported as the average between the three replicates. Michaelis -Menten enzyme kinetic analysis was carried out using GraphPad Prism 8.4.3. Substrate concentrations were adjusted as needed to obtain relevant Michaelis -Menten statistics. Concentrations of substrate are shown in their respective activity plots below.

chymotrypsin and trypsin [3] = assay: In vitro simulated digestion (pNP release) assay with trypsin, chymotrypsin or both enzymes; type: biochemical; details: substrate 1.5 mM, 35 mM HEPES pH 7.5, 37 °C, n = 3
Protocol: We hypothesized that by protecting the phenol with a tert-butyl ether, chymotrypsin would not recognize the tyrosine derivative prior to passage through the acidic conditions in the stomach where the tert-butyl ether would be removed. This additional security measure removes the ability to pretreat the prodrug with store-bought digestive enzyme supplements to release the opioid.
General Procedure – Release Kinetics
(§3) The peptide was dissolved in DMSO and diluted using 35 mM HEPES buffer (pH 7.5) to a final substrate concentration of 1.5 mM, maintaining a constant concentration of DMSO across all conditions. These solutions were then combined with either chymotrypsin, trypsin, or both enzymes to afford a final concentration of 0.02 mM for each enzyme. Immediately upon addition of the proteases, the 96-well plate was inserted into the plate reader and the absorbance at 405 nm was monitored over the course of 4 hours with time points taken every 30 seconds. The plate was incubated in the plate reader at 37 °C.
as §1, §2

C57BL/6J mice [4] = assay: Hot plate latency after intraperitoneal injection; type: in vivo, mouse; details: 30 mg/kg of oxycodone in prodrug, 55 °C hot plate, n = 6, ns vs water
chymotrypsin and trypsin [5] = assay: Michaelis-Menten competitive inhibition release assay of 12 with peptide byproduct 19; type: biochemical; details: 19 at 1.6, 0.8, 0.4 or 0.2 mM; 12 at 0.1-2.0 mM; chymotrypsin and trypsin 0.02 mM each; 35 mM HEPES pH 7.5; n = 3
Description: Prior to moving forward with analgesia studies in vivo, it was important to ensure that the AAAY (19) peptide byproduct from chymotrypsin cleavage was not competitively inhibiting the pNP release. This could be an issue in vivo, as the PEPT1 transepithelial transporter in the digestive tract has a very weak binding affinity for tetrapeptides. A lack of transport for 19 could lead to the accumulation and generation of a competitive inhibitor for chymotrypsin, thus reducing the overall amount of opioid released. To examine this hypothesis, Michaelis–Menten competitive inhibition enzyme kinetics were performed with chymotrypsin and trypsin for 12 in the presence of peptide 19. […] These observations enhanced our confidence in using the 12 prodrug scaffold for in vivo analgesia studies.
Competitive Inhibition Release Assay
12 was dissolved in DMSO and diluted using 35 mM HEPES buffer (pH 7.5) to a final substrate concentration of 2.0, 1.5, 1.0, 0.5, 0.24, and 0.1 mM, maintaining a constant concentration of DMSO across all conditions. 19 was added to yield a final concentration of either 1.6, 0.8, 0.4, or 0.2 mM. […] Immediately upon addition of the proteases, the 96 - well plate was inserted into the plate reader and the absorbance at 405 nm was monitored over the course of 4 hours. […]

chymotrypsin = biological target: T1, chymotrypsin (Bos taurus, UniProt P00766); assay: pNP release assay in the presence of chymotrypsin only; type: biochemical; details: chymotrypsin only 0.02 mM, substrate 1.5 mM, 35 mM HEPES pH 7.5, 37 °C, absorbance 405 nm, over 4 h
T1 construct: purchased
Description: Using the branched lysine peptide sequences modified from our previous work, we began to explore the sequence effects on the efficiency and release rate of a model reporter molecule, p-nitrophenol (pNP). Peptides 6–8 were initially prepared to determine whether the peptide backbone length had any effect on the release of pNP in the presence of chymotrypsin alone (Figure A; see Supporting Information (SI) for synthetic procedures). Chymotrypsin promiscuity (i.e., cleavage of both sites) could lead to less misuse deterrence as only one enzyme could promote the release of the opioid. […] However, substrate 8 reached greater than 90% pNP release within 3 h (Figures A and S15). […]
as §3, with “These solutions were then combined with either chymotrypsin, trypsin, or both enzymes to afford a final concentration of 0.02 mM for each enzyme.” left out, “°C. […]” for “°C.”
substrate concentration of 2.0, 1.5, 1.0, 0.5, 0.24, and 0.1 mM, maintaining a constant concentration of DMSO across all conditions. […] The plate was incubated in the plate reader at 37 °C. […]

| Compound | Km (chymotrypsin and trypsin [2]) | VMax (chymotrypsin and trypsin [2]) | also measured |
| --- | --- | --- | --- |
| COc1ccc2c3c1O[C@H]1C(=O)CC[C@@]4(O)[C@@H](C2)N(C)CC[C@]314 [oxycodone] | – | – | analgesic effect after IP injection (C57BL/6J mice [1]): there is an analgesic effect |
| Ac-Ala-Lys[Tyr-Ala-Ala]-(2-(pNP-thionocarbamate)methyl)ethylamino trifluoroacetate [compound 13] | 4.16 mM | 0.119 µM/s | – |
| Ac-Lys[Phe-Ala-Ala]-(2-(pNP-thionocarbamate)methyl)ethylamino trifluoroacetate [compound 10] | 1.97 mM | 0.225 µM/s | kCat/KM (substrate specificity) (chymotrypsin and trypsin [2]): 5.73 × 10^–6 μM^-1s^-1 |
| Ac-Lys[Phe-Ala]-(2-(pNP-thionocarbamate)methyl)ethylamino trifluoroacetate [compound 9] | 1.42 mM | 0.021 µM/s | – |
| Ac-Lys[Tyr(tBu)-Ala-Ala-Ala]-(2-(pNP-thionocarbamate)methyl)ethylamino trifluoroacetate [compound 14] | – | – | pNP release over 150 min (chymotrypsin and trypsin [3]; both chymotrypsin and trypsin 0.02 mM each, absorbance 405 nm, 150 min, no acidic pretreatment): ~5% |
| Ac-Lys[Tyr-Ala-Ala-Ala]-(2-(oxycodone-thionocarbamate)methyl)ethylamino ditrifluoroacetate [compound 20] | – | – | withdrawal threshold (hot plate) latency after IP injection (C57BL/6J mice [4]): did not alleviate acute pain |
| Ac-Lys[Tyr-Ala-Ala-Ala]-(2-(pNP-thionocarbamate)methyl)ethylamino trifluoroacetate [compound 12] | 2.35 mM | 0.749 µM/s | pNP release at which the simulated digestion assay stagnated (chymotrypsin and trypsin [3]; both chymotrypsin and trypsin 0.02 mM each, absorbance 405 nm, plateau): ~30%; enzyme requirement for pNP release (chymotrypsin and trypsin [3]; trypsin, chymotrypsin, or both enzymes, 0.02 mM each): only observed in the presence of both proteolytic enzymes; increase of substrate specificity (kCat/KM) compared to 11 (chymotrypsin and trypsin [2]; chymotrypsin and trypsin, relative to 11): around 5 fold |
| Ac-Lys[Tyr-Ala-Ala]-(2-(pNP-thionocarbamate)methyl)ethylamino trifluoroacetate [compound 11] | 4 mM | 0.276 µM/s | – |
| Ala-Ala-Ala-Tyr trifluoroacetate [compound 19] | – | – | competitive inhibition of pNP release from 12 (chymotrypsin and trypsin [5]): negligibly affected |
| Ala-Lys[(Ac)Phe]-(2-(pNP-thionocarbamate)methyl)ethylamino trifluoroacetate [compound 7] | 0.941 mM | 0.019 µM/s | kCat/KM (substrate specificity) (chymotrypsin and trypsin [2]): 9.97 × 10^–7 μM^-1s^-1; pNP release over the course of 4 h, chymotrypsin alone (chymotrypsin): less than 15% |
